{"source": "patent US20090047704A1", "about": "“Combination of a Histological or Cytological Fixing Agent and One or More Photoactivatable Compounds of the Quinone Family, In Particular Hypericin, Hypocrellin A and Hypocrellin B” (NOVACYT, priority 2005, published 2009)", "type_in_all_cases": "cell-based", "key": {"tumorous HeLa cells": {"tested_on": "tumorous HeLa cells", "assay": "Microspectrofluorometer measurement of hypericin marking in a fixed mixed cell suspension, tumorous cells", "conditions": "Sakomano fixing agent, 2 μm/ml, one hour, shielded from light", "source_text": "(§1) Cells from a line of epidermoid malphigian carcinoma of the cervix, of the type HeLa, are cultivated in a petri dish. They are then fixed in a cytological fixing agent of the Sakomano type which already includes normal epithelial cells from a cervical smear in order to verify the affinity of hypericin for the tumorous cells in a cell suspension containing several types of normal cells and tumorous cells. Hypericin is then placed in suspension for one hour in the cell suspension fixed at a concentration of 2 μm/ml and shielded from light. Tests are carried out using a microspectrofluorometer in order to compare the level of intensity of fluorescence and the quality of the fluorescence spectrum measured for the different cells of the suspension, incubated at the same concentration for one hour in the solution of Sakomano cytological fixing agent containing hypericin."}, "tumorous cells": {"tested_on": "tumorous cells", "assay": "Incorporation of hypericin by tumorous cells suspended in fixing agent solution", "conditions": "tumorous cells in suspension in fixing agent solution containing micromolar measures of hypericin", "source_text": "Since the liquid phase of the cell suspension practically no longer contains hypericin, it is possible to carry out a direct analysis of the cells (morphological and/or fluorescence emission analysis) without rinsing the cell suspension. This property therefore allows the cell/tissue preparation and the analysis of the cells to be automated."}, "Human glioblastoma cells": {"tested_on": "Human glioblastoma cells", "assay": "Microspectrofluorometer comparison of hypericin fluorescence in living versus fixed glioblastoma cells", "conditions": "2 micromoles per ml hypericin in Sakomano cytological fixing agent, one hour", "description": "Human glioblastoma cells are cultivated in a petri dish. Hypericin is placed in suspension in a solution of Sakomano cytological fixing agent, with a concentration of 2 micromoles per ml, four hours before the experiments. The fixing agent solution comprising hypericin is shielded from light. The cells of the glioblastoma are directly fixed by placing them in the solution of fixing agent prepared based on hypericin for one hour. Comparative tests are carried out using a microspectrofluorometer in order to compare the level of intensity of fluorescence and the quality of the fluorescence spectrum measured in cultures of identical living glioblastoma cells, incubated at the same concentration for one hour in the solution of Sakomano cytological fixing agent containing hypericin, and the fixed cells."}, "[1]": {"tested_on": "normal epithelial cells from a cervical smear", "assay": "Microspectrofluorometer measurement of hypericin marking in a fixed mixed cell suspension, normal cells", "conditions": "Sakomano fixing agent, 2 μm/ml, one hour, shielded from light", "source_text": "as §1"}}, "note": "Entries after “also recorded” stand apart in the source; their conditions may differ.", "data": [{"molecule": "Cc1cc(O)c2c(=O)c3c(O)cc(O)c4c5c(O)cc(O)c6c(=O)c7c(O)cc(C)c8c1c2c(c34)c(c78)c65", "note": "[hypericin, 1,3,4,6,8,13-hexahydroxy-10,11-dimethylphenanthro(1,10,9,8,opqra)perylene-7,14-dione]", "values": [{"measurement": "affinity of hypericin for tumorous cells", "setting": "tumorous HeLa cells", "value": "great affinity"}, {"measurement": "localisation of hypericin in tumorous cells", "setting": "tumorous HeLa cells", "value": "preferential perinuclear localisation; also recorded: very specific preferential perinuclear localisation"}, {"measurement": "incorporation of hypericin by the cells", "setting": "tumorous cells", "value": "almost all of the hypericin is incorporated by the cells"}, {"measurement": "fluorescence spectrums, living cells versus fixed cells", "setting": "Human glioblastoma cells", "value": "can be completely superimposed"}, {"measurement": "levels of intensity of the fluorescence, living cells versus fixed cells", "setting": "Human glioblastoma cells", "value": "identical"}, {"measurement": "affinity of hypericin for normal cells", "setting": "[1]", "value": "very low level of affinity; also recorded: low level of affinity"}, {"measurement": "localisation of hypericin in normal cells", "setting": "[1]", "value": "peripheral localisation in the region of the cell membrane"}]}]}
